Columns and labels:
[1] = test system: TNF; assay: PBMC assay: TNF cytokine levels in LPS-stimulated human PBMCs (MSD); type: cell-based; details: 100 ng/ml LPS for 6 hrs, TNF in supernatant via MSD
Method in brief: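 Cryopreserved healthy-donor human PBMCs (7.5×10^4 cells/well, RPMI + 10% FBS) were preincubated with 1:3 serially diluted compounds for 30 min at 37 °C. They were then stimulated with 100 ng/ml LPS (final) for 6 h. Supernatant TNF was measured by MSD, and EC50 values were derived.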

[2] = test system: NLRP3 inflammasome; assay: PBMC assay: IL-1β in LPS-stimulated human PBMCs (MSD); type: cell-based; details: human PBMCs, 100 ng/ml LPS for 6 hrs, IL-1β in supernatant via MSD, read-out: IL1β IC50
Method in brief: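 Human PBMCs from healthy donors, Ficoll-isolated and cryopreserved, were plated at 7.5×10^4 cells/well in RPMI/10% FBS for 30 min at 37 °C. Cells were then stimulated with 100 ng/ml LPS (final) for 6 h. IL-1β and TNF in supernatants were quantified by MSD immunoassay.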

| Structure (SMILES) | EC50 [1] | IC50 [2] |
| --- | --- | --- |
| CC(C)c1cc2c(=O)n(CC(=O)N[C@H]3C[C@@](C)(O)C3)nc(C(C)C)n2n1 [Final Cpd 142] | > 10 µM | 0.14 µM |
| CC(C)c1nn(CC(=O)Nc2ccc(C3CC3)nn2)c(=O)c2cc(C3CC3)nn12 [Final Cpd 86] | > 10 µM | > 10 µM |
| CC(C)c1nn(CC(=O)N[C@H]2C[C@@](C)(O)C2)c(=O)c2cc(C3CC3)nn12 [Final Cpd 8] | > 10 µM | 0.24 µM |
| CC(C)c1nn(CC(=O)Nc2ccc3ncoc3c2)c(=O)c2cc(C3CC3)nn12 [Final Cpd 100] | > 10 µM | 0.31 µM |
| Cc1ncc(NC(=O)Cn2nc(C(C)C)n3nc(C4CC4)cc3c2=O)cn1 [Final Cpd 131] | > 10 µM | 3.57 µM |
| COCCN(C)c1nn(CC(=O)Nc2ccc3nncn3c2)c(=O)c2cc(C3CC3)nn12 [Final Cpd 38] | > 10 µM | > 10 µM |
| C=C(OCC)c1cc2c(=O)n(CC(=O)Nc3ccncn3)nc(C(C)C)n2n1 [Final Cpd 179, 2-(2-(1-ethoxyvinyl)-7-isopropyl-4-oxopyrazolo[1,5-d][1,2,4]triazin-5(4H)-yl)-N-(pyrimidin-4-yl)acetamide] | > 10 µM | > 10 µM |
| CC(C)c1nn(CC(=O)Nc2ccc(I)nn2)c(=O)c2cc(C3CC3)nn12 [Final Cpd 173] | > 10 µM | > 10 µM |
| Cc1nn(CC(=O)NC2CC(c3ccc(O)cc3)C2)c(=O)c2cc(C3CC3)nn12 (centres unmarked) [Final Cpd 66] | > 10 µM | 3.55 µM |
| CC(C)c1nn(CC(=O)Nc2ccncc2)c(=O)c2cc(C3CC3)nn12 [Final Cpd 118] | > 10 µM | 0.11 µM |
| CC(C)c1nn(CC(=O)Nc2ccc(=O)n(C)n2)c(=O)c2cc(C3CC3)nn12 [Final Cpd 81] | > 10 µM | 0.16 µM |
| CC(C)c1nn(CC(=O)Nc2cncc(Cl)c2)c(=O)c2cc(C3CC3)nn12 [Final Cpd 117] | > 10 µM | 1.41 µM |
| COc1nn(CC(=O)N[C@H]2C[C@@](C)(O)C2)c(=O)c2cc(C3CC3)nn12 [Final Cpd 139] | > 10 µM | 6.56 µM |
| COc1cncc(NC(=O)Cn2nc(C(C)C)n3nc(C4CC4)cc3c2=O)c1 [Final Cpd 121] | > 10 µM | 3.06 µM |
| CC(C)c1nn(CC(=O)N[C@@H]2CCOC[C@@H]2O)c(=O)c2cc(C3CC3)nn12 [Final Cpd 33] | > 10 µM | 1.56 µM |
| CC(C)c1nn(CC(=O)Nc2ccnc(C(F)F)c2)c(=O)c2cc(C3CC3)nn12 [Final Cpd 130] | > 10 µM | 0.53 µM |

| Structure (SMILES) | EC50 [1] | IC50 [2] |
| --- | --- | --- |
| COc1cc(NC(=O)Cn2nc(C(C)C)n3nc(C4CC4)cc3c2=O)ccn1 [Final Cpd 129] | > 10 µM | 0.67 µM |
| CC(C)c1nn(CC(=O)N[C@H]2C[C@@](C)(O)C2)c(=O)c2cc(C(C)(C)C)nn12 [Final Cpd 71] | > 10 µM | 0.54 µM |
| Cc1nn(CC(=O)NC2(c3ccc(Cl)cc3Cl)CCC2)c(=O)c2cc(C3CC3)nn12 [Final Cpd 63] | > 10 µM | 7.89 µM |
| CC(C)c1nn(CC(=O)Nc2ccc(C(F)F)nn2)c(=O)c2cc(C3CC3)nn12 [Final Cpd 174] | > 10 µM | 6.75 µM |
| CC(C)c1nn(CC(=O)N[C@@H]2CCC(=O)N(C)C2)c(=O)c2cc(C3CC3)nn12 [Final Cpd 30] | > 10 µM | 1.43 µM |
| CCOC(C)c1cc2c(=O)n(CC(=O)Nc3ccncn3)nc(C(C)C)n2n1 (centres unmarked) [Final Cpd 180, 2-(2-(1-ethoxyethyl)-74 sopropyl-4-oxopyrazolo[1,5-d][1,2,4]triazin-5(4H)-yl)-N-(pyrimidin-4-yl)acetamide] | > 10 µM | > 10 µM |
| Cc1nnc2n1CC(NC(=O)Cn1nc(C(C)C)n3nc(C4CC4)cc3c1=O)CC2 (centres unmarked) [Final Cpd 84] | > 10 µM | 0.63 µM |
| CC(C)c1nn(CC(=O)Nc2ccc3c(C#N)ncn3c2)c(=O)c2cc(C3CC3)nn12 [Final Cpd 108] | > 10 µM | 0.54 µM |
| Cc1noc(C)c1[C@@H](c1ccccc1)N1CC(NC(=O)Cn2nc(C)n3nc(C4CC4)cc3c2=O)C1 [Final Cpd 58] | > 10 µM | 9.41 µM |
| COc1ccc(NC(=O)Cn2nc(C(C)C)n3nc(C4CC4)cc3c2=O)cn1 [Final Cpd 111] | > 10 µM | 0.83 µM |
| CCc1cc2c(=O)n(CC(=O)Nc3ccncn3)nc(C(C)C)n2n1 [Final Cpd 1, 2-(2-ethyl-7-isopropyl-4-oxo-pyrazolo[1,5-d][1,2,4]triazin-5-yl)-N-pyrimidin-4-yl-acetamide] | > 10 µM | 0.34 µM |
| CC(C)c1nn(CC(=O)Nc2ccncc2Cl)c(=O)c2cc(C3CC3)nn12 [Final Cpd 133] | ≥ 10 µM | 0.44 µM |
| CC(C)c1nn(CC(=O)Nc2ccnnc2)c(=O)c2cc(C3CC3)nn12 [Final Cpd 32] | > 10 µM | 0.15 µM |
| CC(C)c1nn(CC(=O)Nc2nccc(C(F)(F)F)n2)c(=O)c2cc(C3CC3)nn12 [Final Cpd 98] | > 10 µM | > 10 µM |
| CC(C)c1nn(CC(=O)Nc2ccc3nnc(Cl)n3n2)c(=O)c2cc(C3CC3)nn12 [Final Cpd 170] | > 10 µM | 0.55 µM |

Results, then the compound that gave them:

| EC50 [1] | IC50 [2] | Structure (SMILES) |
| --- | --- | --- |
| > 10 µM | 0.09 µM | CC(C)c1nn(CC(=O)N[C@H]2C[C@@](C)(O)C2)c(=O)c2cc(C3CC3(F)F)nn12 (some centres unmarked) [Final Cpd 153] |
| > 10 µM | 0.54 µM | CC(C)c1nn(CC(=O)Nc2cc(F)[nH]c(=O)c2)c(=O)c2cc(C3CC3)nn12 [Final Cpd 164] |
| > 10 µM | > 10 µM | CCc1nn(CC(=O)NC2CC2)c(=O)c2ccnn12 [Final Cpd 76, N-cyclopropyl-2-(7-ethyl-4-oxopyrazolo[1,5-d][1,2,4]triazin-5(4H)-yl)acetamide] |
| > 10 µM | 0.29 µM | CCc1nn(CC(=O)Nc2ccncn2)c(=O)c2cc(I)nn12 [Final Cpd 4, 2-(7-ethyl-2-iodo-4-oxo-pyrazolo[1,5-d][1,2,4]triazin-5-yl)-N-pyrimidin-4-yl-acetamide] |
| > 10 µM | 0.18 µM | Cc1cc(NC(=O)Cn2nc(C(C)C)n3nc(C4CC4)cc3c2=O)ccn1 [Final Cpd 127] |
| > 10 µM | 6.97 µM | Cc1nn(CC(=O)N[C@@H]2CCN(c3nc4cccnc4o3)C2)c(=O)c2cc(C3CC3)nn12 [Final Cpd 56] |
| > 10 µM | 5.5 µM | Cc1nn(CC(=O)N[C@]23CC[C@H](CC2)C3)c(=O)c2cc(C3CC3)nn12 [Final Cpd 64] |
| > 10 µM | 0.59 µM | CC(C)c1nn(CC(=O)Nc2ccc(Cl)nc2)c(=O)c2cc(C3CC3)nn12 [Final Cpd 110] |
| > 10 µM | 0.32 µM | CC(C)c1cc2c(=O)n(CC(=O)Nc3ccnnc3)nc(C(C)C)n2n1 [Final Cpd 144] |
| > 10 µM | > 10 µM | CC(C)c1nn(CC(=O)Nc2ccc(C(F)(F)F)nn2)c(=O)c2cc(C3CC3)nn12 [Final Cpd 172, 2-(2-cyclopropyl-7-isopropyl-4-oxopyrazolo[1,5-d][1,2,4]triazin-5(4H)-yl)-N-(6-(trifluoromethyl)pyridazin-3-yl)acetamide] |
| > 10 µM | 0.23 µM | Cc1cnccc1NC(=O)Cn1nc(C(C)C)n2nc(C3CC3)cc2c1=O [Final Cpd 134] |
| > 10 µM | 0.98 µM | CC(C)c1nn(CC(=O)Nc2cc(C#N)c3nncn3c2)c(=O)c2cc(C3CC3)nn12 [Final Cpd 193, N-(8-cyano-[1,2,4]triazolo[4,3-a]pyridin-6-yl)-2-(2-cyclopropyl-7-isopropyl-4-oxopyrazolo[1,5-d][1,2,4]triazin-5(4H)-yl)acetamide] |
| > 10 µM | 1.08 µM | CC(C)c1nn(CC(=O)Nc2cccnc2Cl)c(=O)c2cc(C3CC3)nn12 [Final Cpd 109] |
| > 10 µM | 7.75 µM | CC(C)c1nn(CC(=O)Nc2cnc3ccnn3c2)c(=O)c2cc(C3CC3)nn12 [Final Cpd 101] |
| > 10 µM | 2.34 µM | Cc1nnc2cc(NC(=O)Cn3nc(C(C)C)n4nc(C5CC5)cc4c3=O)ccn12 [Final Cpd 94] |
| > 10 µM | 0.88 µM | CC(C)c1nn(CC(=O)Nc2cncc(F)c2)c(=O)c2cc(C3CC3)nn12 [Final Cpd 112] |
| > 10 µM | 1.23 µM | CC(C)c1nn(CC(=O)Nc2ccc(C(F)F)nc2)c(=O)c2cc(C3CC3)nn12 [Final Cpd 116] |
| > 10 µM | > 10 µM | CCc1nn(CC(=O)Nc2ccncn2)c(=O)c2cc(NC(C)=O)nn12 [Final Cpd 184, 2-(2-acetamido-7-ethyl-4-oxopyrazolo[1,5-d][1,2,4]triazin-5(4H)-yl)-N-(pyrimidin-4-yl)acetamide] |
| > 10 µM | 0.1 µM | CC(C)c1nn(CC(=O)Nc2ccc3nccn3n2)c(=O)c2cc(C3CC3)nn12 [Final Cpd 165] |
| > 10 µM | 0.78 µM | CCCCc1nn(CC(=O)Nc2ccc3nncn3c2)c(=O)c2cc(C3CC3)nn12 [Final Cpd 68] |
| 6.17 µM | 0.063 µM | CC(C)c1nn(CC(=O)Nc2ccc3cncn3c2)c(=O)c2cc(C3CC3)nn12 [Final Cpd 87] |

Reference: patent US20230203044A1, “PYRAZOLO[1,5-D][1,2,4]TRIAZINE-5(4H)-ACETAMIDES AS INHIBITORS OF THE NLRP3 INFLAMMASOME” (JANSSEN PHARMACEUTICA NV, priority 2020, published 2023)
